The AUC is concentration integrated over time. Read a high AUC as more exposure. The term Cmax denotes the highest concentration seen after dosing. Usually Tmax stands for the time at which the peak concentration occurs.

These results are taken from patent US8779146B2, “Cilostazol cocrystals and compositions” (Nuformix Limited, priority 2010, dated 2014).

Series [1] in a line: Gravimetric vapour sorption (GVS) moisture sorption isotherm. Conditions: for moisture reversibly adsorbed: across the 0-90% relative humidity range at 25° C. under nitrogen; for solid form by XRPD analysis after completion of the isotherm: after GVS cycle 0-90% RH; for solid form by XRPD analysis after completion of the isotherm / hygroscopicity: 25° C.; for hygroscopicity: conclusion from GVS isotherm, 0-90% RH. The format is physicochemical. On the procedure:
Sorption isotherms were obtained using a SMS DVS Intrinsic moisture sorption analyser, controlled by DVS Intrinsic Control software v1.0.0.30. The sample temperature was maintained at 25° C. by the instrument controls. The humidity was controlled by mixing streams of dry and wet nitrogen, with a total flow rate of 200 ml·min^−1 The relative humidity was measured by a calibrated Rotronic probe (dynamic range of 1.0-100% RH), located near the sample. The weight change, (mass relaxation) of the sample as a function of % RH was constantly monitored by the microbalance (accuracy ±0.005 mg).
Typically 5-20 mg of sample was placed in a tared mesh stainless steel basket under ambient conditions. The sample was loaded and unloaded at 40% RH and 25° C. (typical room conditions). A moisture sorption isotherm was performed as outlined in Table 1 (2 scans giving 1 complete cycle). The standard isotherm was performed at 25° C. at 10% RH intervals over a 0.5-90% RH range. Data analysis was undertaken in Microsoft Excel using DVS Analysis Suite v6.0.0.7. The sample was recovered after completion of the isotherm and re-analyzed by XRPD.

The conditions of series [2]: dog, in vivo, po, 100 mg.
Experimental: (§1) A crossover study was carried out using 5 male beagle dogs with a washout period of 5 days between each treatment. Prior to dosing, the dogs were fasted overnight. The capsules were accurately filled with the amount of cilostazol or the corresponding cocrystal that was equivalent to 100 mg cilostazol. The capsules were orally administered to the dogs followed by about 10 mL of water. Food (about 250 g) was provided 4 hours post-dose to all animals.
(§2) Blood samples were collected at pre-dose, 15 and 30 minutes, and 1, 2, 3, 4, 6, 8, 10, 12 and 24 hour post-dose (12 time points) following oral dose administration. Approximately 0.8 ml of whole blood was withdrawn from the cephalic vein and placed in labelled tubes containing sodium heparin as anticoagulant (20 μL of 400 IU/mL sodium heparin solution per mL of blood). Plasma was separated by centrifuging the whole blood at about 2500 g for 10 minutes at 4° C. Separated plasma was stored below −70° C. until analysis.
(§3) A fit for purpose LC-MS/MS method was used for the determination of the cilostazol concentrations in the plasma samples. Pharmacokinetic parameters from individual samples were calculated using the non-compartmental analysis tool of the WinNonlin® software (version 5.2). The area under the plasma concentration curve (AUC) was calculated using the linear trapezoidal rule. Peak plasma concentration (Cmax) and the time taken to reach the peak plasma concentration (Tmax) were the observed values.
The conditions of series [3]: low solubility, high permeability drug; cited from earlier work.
Series [4] is described as follows: Pharmacokinetic study, oral capsule, crossover, fasted beagle dogs. The conditions noted are these: male, dog, plasma, 100 mg.
Experimental: as §1, §2, §3
For series [5] the following is noted: cited from earlier work.

Like-named read-outs stand apart in the source and are kept apart here.

As for `O.O=C(O)c1cc(O)ccc1O.O=C1CCc2cc(OCCCCc3nnnn3C3CCCCC3)ccc2N1`, in series [1], the moisture reversibly adsorbed stood at 0.1 % w/w, the “solid form by XRPD analysis after completion of the isotherm” value was “unchanged” and the hygroscopicity result is “not hygroscopic”.

On to `O=C(O)c1cc(O)ccc1O.O=C1CCc2cc(OCCCCc3nnnn3C3CCCCC3)ccc2N1` [1:1 cilostazol gentisic acid cocrystal], for which, in series [2], the AUC was 1216.37 ng·h/mL, the Cmax came to 471.42 ng/mL and the Tmax is 1.00 h. Moreover, in series [1], the moisture reversibly adsorbed is below 0.3 % w/w, the “solid form by XRPD analysis after completion of the isotherm” value is on record as “unchanged” and the hygroscopicity entry is “not hygroscopic”.

Turning to `O=C1CCc2cc(OCCCCc3nnnn3C3CCCCC3)ccc2N1` [Cilostazol, 6-[4-(1-cyclohexyl-1H-tetrazol-5-yl)butoxy]-3,4-dihydro-2(1H)-quinolinone], the BCS class entry in series [3] is recorded as “Class II”. In addition, the AUC in series [4] is 371 ng·h/mL. Besides, the Cmax in series [4] is 81.5 ng/mL. Further, the Tmax in series [4] came to 2 h. Further, the solubility result was “practically insoluble” in series [5] (in 0.1N HCl); “practically insoluble” in series [5] (in 0.1N NaOH); “slightly soluble” in series [5] (in ethanol); “slightly soluble” in series [5] (in methanol); “practically insoluble” in series [5] (in water).
